Source: patent US8680153B2, “Method for correcting a lipid imbalance in a subject” (The Royal Institution for the Advancement of …, priority 2005, dated 2014)

Columns and labels:
ceramide levels = test: Ceramide levels by ELISA in lung and plasma of P. aeruginosa-infected mice; type: in vivo
Method: Fenretinide Diet Supplementation. Examples 2 to 6: fenretinide (Sigma-Aldrich, Oakville, ON) powder was resuspended in 95% ethanol and subsequently incorporated in the Peptamen liquid diet. It was protected from light and kept at 4° C. before being given to the mice (5 mg/kg per day per mouse). Mock-treated diets were prepared similarly by adding ethanol to the Peptamen diet but omitting the fenretinide supplementation. The diet was given every morning for 28 consecutive days with specific monitoring of the quantity consumed by the mice in each cage. Examples 7 to 12: fenretinide powder was kindly provided by Dr. Robert Smith (NIH; Bethesda, Md., USA). Fenretinide was resuspended in 95% ethanol to make a 2 μg/μL concentration. Approximately 40 μL of this preparation was incorporated into the Peptamen liquid diet (5 mg/kg per day per mouse). The prepared food containing fenretinide was then stored in the dark at 4° C. for no more than 3 hours prior to being administered to the mice. To ensure that the entire drug dose was consumed, the mice were given 10 mL of fenretinide-treated Peptamen, which represents ⅔ of the daily mouse food consumption, in the late afternoon. […] During the treatment period each mouse was kept in a separate cage (including WT mice) and was monitored to ensure that the entire amount of Peptamen containing the fenretinide or with out was consumed. […]

DHA and AA levels = test: Fatty acid analysis (DHA, AA, DHA/AA ratio) in lungs and plasma, 28 daily treatments; type: in vivo, mice
Method: (§1) Fenretinide Diet Supplementation. Examples 2 to 6: fenretinide (Sigma-Aldrich, Oakville, ON) powder was resuspended in 95% ethanol and subsequently incorporated in the Peptamen liquid diet. It was protected from light and kept at 4° C. before being given to the mice (5 mg/kg per day per mouse). Mock-treated diets were prepared similarly by adding ethanol to the Peptamen diet but omitting the fenretinide supplementation. The diet was given every morning for 28 consecutive days with specific monitoring of the quantity consumed by the mice in each cage. Examples 7 to 12: fenretinide powder was kindly provided by Dr. Robert Smith (NIH; Bethesda, Md., USA). Fenretinide was resuspended in 95% ethanol to make a 2 μg/μL concentration. Approximately 40 μL of this preparation was incorporated into the Peptamen liquid diet (5 mg/kg per day per mouse). The prepared food containing fenretinide was then stored in the dark at 4° C. for no more than 3 hours prior to being administered to the mice. To ensure that the entire drug dose was consumed, the mice were given 10 mL of fenretinide-treated Peptamen, which represents ⅔ of the daily mouse food consumption, in the late afternoon. The remaining 5 mL of Peptamen (without fenretinide) was given the following morning. Mice were treated twice a week for 4 weeks. During the treatment period each mouse was kept in a separate cage (including WT mice) and was monitored to ensure that the entire amount of Peptamen containing the fenretinide or with out was consumed. The diet for the mock-treated control group was prepared and administered similarly to that described above, by adding the same volume of ethanol to the Peptamen diet but omitting the fenretinide supplementation.
Fatty Acid Analysis. Minced tissues isolated from mice were immersed in 1 mM BHA in chloroform and methanol (2:1 vol). For plasma samples (mouse and human), 100 μL of plasma was added to 1 mL of BHA. Lipids were then extracted from all samples according to standard methods (Folch, et al. (1957) J. Biol. Chem. 226:497-509). Identification of phospholipids was carried out by thin-layer chromatography extraction (Van Handel & Zilversmit (1957) J. Lab. Clin. Med. 50:152-157). Also, fractionated lipids were dried and resuspended in heptane:methanol:sulfuric acid (5:1:1) for free fatty acid extraction. Diazomethane was used to esterify the fatty acids released and the esters were identified by GC/MS (Hewlett Packard 5880A, WCOT capillary column (Supelco-10, 35 m×0.5 mm, 1 μm thick)) using commercial standards (Sigma-Aldrich).

Cftr-KO mice = test: μCT of trabecular bone (femur), biweekly treatment for 4 weeks; type: in vivo
Method: as §1
μ-CT. Mice were sacrificed by CO2 and exsanguinated by cardiac puncture. Femurs, tibiae and vertebrae were extracted, stripped of soft tissue and fixed in 4% paraformaldehyde overnight. Micro Computed Tomography (μCT) was performed on the left femur after overnight fixation. The distal metaphysis was scanned with a Skyscan 1072 μCT instrument (Skyscan, Antwerp, Belgium). Image acquisition was performed at 100 kV and 98 μA, with a 0.9° rotation between frames. The two-dimensional images were used to generate three-dimensional reconstructions to obtain quantitative data using the 3D Creator software supplied with the instrument (ANT 3D Creator software, Skyscan, Antwerp, Belgium).
Histological analysis. Mice were given an intra-peritoneal injection of 30 mg/kg calcein at 7 days and 2 days prior to sacrifice to label actively mineralizing surfaces. After overnight fixation in 4% paraformaldehyde and rinsing in phosphate buffered saline (PBS), right femurs and tibiae were embedded in polymethylmethacrylate (MMA) or a mixture of 50% MMA and 50% glycolmethacrylate (GMA). Serial 4- to 6-μm sections were cut on a modified Leica RM 2155 rotary microtome (Leica Microsystems, Richmond Hill, Ontario, Canada). MMA-embedded tissues were stained with von Kossa and toluidine blue, while 4 μm MMA-GMA sections were stained with tartrate-resistant acidic phosphatase (TRAP) and alkaline phosphate (ALP) activity. Images were captured using a Leica DMR microscope (Leica Microsystems) equipped with a Retiga 1300 camera (Qimaging, Burnaby, British Columbia, Canada). The left femur and tibia and the lumbar vertebrae were decalcified with 4% EDTA for paraffin embedding after 14 days. Serial 5 μm sections were cut and stained with hematoxylin and esosin (H&E). Osteoblasts were defined as a single-nucleated, rod shaped cells and were identified along the surface of the trabecular lamellae. Osteoclasts were defined as multi-nucleated cells that are much larger then osteoblasts and display typical macrophage morphology.

[1] = fenretinide-treated Cftr-KO infected mice, lungs and plasma
[2] = wild-type mice, lungs and plasma
[3] = Cftr-KO mice, left femur, 8 doses over 4 weeks

CC1=C(/C=C/C(C)=C/C=C/C(C)=C/C(=O)Nc2ccc(O)cc2)C(C)(C)CCC1 [fenretinide, all-trans-N-(4-hydroxyphenyl) retinamide]
Increase in ceramide levels vs mock-treated controls (ceramide levels; P. aeruginosa-infected Cftr-KO mice): approximately 7 fold | Increase in ceramide levels vs untreated counterparts (ceramide levels; P. aeruginosa-infected WT mice): approx. 2 fold | AA levels in the ileum, liver and pancreas (DHA and AA levels; Cftr-KO mice): decrease | Difference in median DHA/AA index ratio, wild-type/Cftr-KO (DHA and AA levels; FEN-treated mice (untreated = 67-fold)): 7 fold | Lowering of the difference in median DHA/AA index ratio between wild-type and Cftr-KO (DHA and AA levels; FEN-treated vs untreated): approximately 10 fold | AA levels, median vs infected Cftr-KO untreated controls (DHA and AA levels; [1]): lower median | Concentration of DHA incorporated in phospholipids, median vs wild-type infected controls (DHA and AA levels; [1]): lower median | Free DHA concentration, median vs wild-type infected controls (DHA and AA levels; fenretinide-treated Cftr-KO infected mice, plasma): higher median | Free DHA (percentile), median vs wild-type untreated uninfected controls (DHA and AA levels; fenretinide-treated infected wild-type mice, lungs and plasma): significant difference | DHA incorporated in phospholipids (percentile of total fatty acids), median vs untreated Cftr-KO (DHA and AA levels; infected Cftr-KO mice, lungs and plasma): no difference | DHA/AA median index ratio vs untreated Cftr-KO (DHA and AA levels; infected Cftr-KO mice, lungs and plasma (significant only in lungs)): increase | DHA incorporated in phospholipids (percentile of total fatty acids), median vs untreated wild-type (DHA and AA levels; [2]): no difference | DHA/AA median index ratio vs untreated wild-type (DHA and AA levels; [2]): no effect | Signs of osteoporosis in the trabecular bone (μCT) (Cftr-KO mice; Cftr-KO mice, biweekly treatment over four weeks (total 8 doses)): completely eliminate any signs of osteoporosis | Bone number (BN), increase vs Cftr-KO not treated (Cftr-KO mice; [3]): 2.4 fold | Bone volume (BV), increase vs Cftr-KO not treated (Cftr-KO mice; [3]): 3.1 fold | Bone volume/tissue volume (BV/TV), increase vs untreated Cftr-KO (Cftr-KO mice; [3]): 2.7 fold | Structural model index (SMI), treated WT vs treated Cftr-KO (Cftr-KO mice; left femur, fenretinide-treated mice): no significant (p=0.320) difference | Trabecular separation, treated WT vs treated Cftr-KO (Cftr-KO mice; left femur, fenretinide-treated mice, p=0.548): no longer a significant difference
